In PubChem BioAssay (NCI):
Values joined by “and” are separate entries in the source; they are usually repeats but may differ in a detail not shown here. Equal values may be shown once.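 Method: 48-hour compound exposure of cells in 96-well plates, five concentrations, linear interpolation of endpoints. GI50: concentration for 50% inhibition of growth. TGI is the concentration that stops growth completely.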

How the values were obtained:
Experiment in all cases: DTP human tumour cell line panel, 48 h
ACHN renal = test system: ACHN renal
CCRF-CEM leukemia = test system: CCRF-CEM leukemia
COLO 205 colon = test system: COLO 205 colon
HS 578T breast = test system: HS 578T breast
OVCAR-8 ovarian = test system: OVCAR-8 ovarian
PC-3 prostate = test system: PC-3 prostate
SK-MEL-2 melanoma = test system: SK-MEL-2 melanoma
SR leukemia = test system: SR leukemia
U251 CNS = test system: U251 CNS
UACC-62 melanoma = test system: UACC-62 melanoma

SMILES | GI50 (ACHN renal) | TGI (ACHN renal) | GI50 (CCRF-CEM leukemia) | TGI (CCRF-CEM leukemia) | GI50 (COLO 205 colon) | TGI (COLO 205 colon) | GI50 (HS 578T breast) | TGI (HS 578T breast) | GI50 (OVCAR-8 ovarian) | TGI (OVCAR-8 ovarian) | GI50 (PC-3 prostate) | TGI (PC-3 prostate) | GI50 (SK-MEL-2 melanoma) | TGI (SK-MEL-2 melanoma) | GI50 (SR leukemia) | TGI (SR leukemia) | GI50 (U251 CNS) | TGI (U251 CNS) | GI50 (UACC-62 melanoma) | TGI (UACC-62 melanoma)
C[C@@H]1CC[C@H]2[C@@H](C)C(O)O[C@@H]3O[C@]4(C)CC[C@@H]1[C@]32OO4 (stereo partly drawn) | 1.26 µM | 13 µM | 0.568 µM | 35 µM | 0.718 µM | 3 µM | 1.33 µM | 42.2 µM | 0.389 µM | 12.7 µM | 0.0662 µM | > 43.3 µM | 2 µM | 15.2 µM | 0.199 µM | 0.898 µM | 0.532 µM | 16.6 µM | 0.56 µM | > 76.9 µM
Nc1nc(=O)n(C2CC(O)C(CO)O2)cc1F (stereo not drawn) | 0.00802 µM and < 0.0108 µM | > 100 µM | 0.00276 µM | > 100 µM | – | > 100 µM | 55.2 µM | > 100 µM | 0.0594 µM | > 100 µM | 1.47 µM | > 100 µM | – | > 100 µM | > 100 µM | > 100 µM | < 0.0506 µM | > 100 µM | < 0.0473 µM | > 100 µM
CN(C)c1ccc(/C=C/C(=O)c2ccc(Nc3nc(Nc4ccc(F)cc4)nc(Nc4ccc(F)cc4)n3)cc2)cc1 | 27.4 µM | > 100 µM | 5.61 µM | > 100 µM | 5.16 µM | 24.8 µM | 14.4 µM | 51.9 µM | 11.6 µM | 40.3 µM | 6.56 µM | 80.2 µM | 14.2 µM | 52.5 µM | 7.12 µM | > 100 µM | 17.2 µM | 55.1 µM | 27.4 µM | > 100 µM
O=C(O)C1C2C=CC(O2)C1C(=O)NCc1cccnc1 (stereo not drawn) | – | > 100 µM | – | > 100 µM | – | > 100 µM | – | > 100 µM | – | > 100 µM | – | > 100 µM | – | > 100 µM | – | > 100 µM | – | > 100 µM | – | > 100 µM
Cc1nnc(C[C@@H]2C=C(c3ccc(Cl)cc3)c3ccccc3-n3c(C)nnc32)o1 | 1.25 µM | > 100 µM | 8.6 µM | > 94.1 µM | 0.296 µM | 24.1 µM | 0.578 µM | 46.1 µM | 2.94 µM | > 67.4 µM | 3.53 µM | > 100 µM | 10.2 µM | 47.6 µM | 0.27 µM | > 70.6 µM | 4.81 µM | > 76.1 µM | 0.118 µM | 18.9 µM
Cc1cc2c(cc1Cl)SC(N(c1ccccc1Cl)S(=O)(=O)c1ccc(Br)s1)=NS2(=O)=O | 22.4 µM | 84.7 µM | 25.8 µM | 82.1 µM | 12.2 µM | 28 µM | 18 µM | 41.4 µM | – | – | 12.5 µM | 29.7 µM | 12.8 µM | 43.7 µM | 23.8 µM | 83.4 µM | 16.5 µM | 46.3 µM | 20.3 µM | 68.4 µM
C[C@@H](O)[C@@H](C)Oc1nc(Nc2ccc(S(=N)(=O)C3CC3)cc2)ncc1C(F)(F)F (stereo partly drawn) | 0.0261 µM | > 100 µM | 0.0231 µM | 0.0621 µM | 0.0158 µM | 0.0328 µM | 0.0313 µM | 7.96 µM | – | – | 0.0401 µM | 0.443 µM | 0.0219 µM | 0.0621 µM | < 0.0122 µM | 0.0475 µM | 0.0252 µM | 13.2 µM | 0.0249 µM | 0.0931 µM
N#C/C(=C\c1ccc(O)c(O)c1)C(=O)NCc1ccc(C(F)(F)F)cc1 | 6.14 µM | 23.9 µM | 2.14 µM | 14.7 µM | 12.1 µM | 43.3 µM | 12.6 µM | 46.9 µM | 10.1 µM | > 49.7 µM | 30.1 µM | > 100 µM | – | 6.34 µM | 2.47 µM | 6 µM | 5.67 µM | 28.9 µM | 4.25 µM | 13.9 µM
O=CC(OC(=O)c1ccccc1)C(OC(=O)c1ccccc1)C(COC(c1ccccc1)(c1ccccc1)c1ccccc1)OC(=O)c1ccccc1 (stereo not drawn) | 11.4 µM | 24 µM | 2.21 µM | 7.26 µM | 11.8 µM | 25.4 µM | 33.2 µM | > 100 µM | 4.76 µM | 54.1 µM | 9.64 µM | 24.7 µM | 18.4 µM | 50.4 µM | 1.3 µM | 4.03 µM | 7.51 µM | 20.2 µM | 14.5 µM | 44.1 µM
CC/C=C\C[C@H]1C/C=C2/C(=O)C=C[C@H]2C/C=C\CCCC(=O)O1 | 1.39 µM | 3.97 µM | 1.67 µM | 15.3 µM | 1.87 µM | 6.7 µM | 10.3 µM | > 50 µM | 2 µM | 11.7 µM | 3.13 µM | 12.1 µM | 3.77 µM | 12.6 µM | 1.34 µM | 21.8 µM | 1.95 µM | 7.09 µM | 1.78 µM | 7.94 µM
COc1ccc(-c2nn(-c3cccc(Cl)c3)cc2/C=C2\NC(=S)N(c3ccc(Cl)cc3)C2=O)cc1 | 3.72 µM | > 25 µM | 2.98 µM | 11 µM | 5.59 µM | 11 µM | 4.14 µM | 24.1 µM | 2.62 µM | 7.02 µM | 5.37 µM | 21.6 µM | 4.15 µM | 9.61 µM | 3.59 µM | 7.29 µM | 2.86 µM | 6.99 µM | 3.29 µM | 7.64 µM
O=C(COc1ccc(/C=C2\Oc3ccc4ccccc4c3C2=O)cc1)c1ccc([N+](=O)[O-])cc1 | 28.3 µM | 88.2 µM | 1.81 µM | 4.12 µM | 11.2 µM | 33.5 µM | 18.5 µM | 57 µM | 4.88 µM | 23.2 µM | 9.36 µM | 21.3 µM | 15.5 µM | 73.7 µM | 0.0291 µM | 1.84 µM | 13.1 µM | 25.8 µM | 11.9 µM | 25.9 µM
